Test results taken from patent publication US11702424B2, “Bicyclic-fused heteroaryl or aryl compounds” (Pfizer Inc., priority 2014, dated 2023).

How the values were obtained:
[1] = system: collagen-induced arthritis; experiment: In Vivo Rat Collagen-Induced Arthritis Model; conditions: Lewis rat CIA; for days on which hind paw swelling in CIA rats was significantly reduced (t-test, p<0.05 vs. vehicle): paw volume by plethysmograph
Experimental: In Vivo Rat Collagen-Induced Arthritis Model.
Efficacy of IRAK4 compounds of the present invention was also evaluated in a rat in vivo model of rheumatoid arthritis (M. Hegen, J. C. Keith, Jr, M. Collins, C. L. Nickerson-Nutter, Ann. Rheum. Dis. 2008, 67, 1505-1515). An exemplary protocol for this in vivo model follows.
Female Lewis rats, approximately 7 weeks old, were immunized with an emulsion of type II collagen (CII) and incomplete Freund's adjuvant (IFA) on day 0 and received a boost of CII/IFA on day 7. Hind paw volume increase was taken by plethysmograph. Animals were randomly enrolled into treatment groups based on the development of disease. Beginning on day 11 post immunization, rats were enrolled into random treatment groups based on an increase in a single hind paw volume compared to day 7 post immunization baseline measurements.
Ten rats were enrolled per treatment group with the exception of the naive control group, which contained two rats. Day 0 was designated as the first treatment day, and paw measurements are taken daily by plethysmograph. The rats were weighed on a daily basis.
IRAK4 inhibitors are efficacious in the Lewis rat model of collagen-induced arthritis.

serum TNF = experiment: In Vivo Mouse LPS/D-Gal Challenge Model; conditions: oral, serum TNF vs. vehicle
Experimental: In Vivo Mouse LPS/D-Gal Challenge Model.
Efficacy of IRAK4 compounds of the present invention was also evaluated in an in vivo mouse model of endotoxin induced (Lipopolysaccharide (LPS)) inflammation. See: S. Copeland, H. W. Warren, S. F. Lowry, S. E. Calvano, and D. Remick, Clin. Diagn. Lab. Immnol. 2005, 12(1), 60-67. An exemplary protocol for this in vivo model follows.
Female C57/BL6 mice, 8 to 10 weeks old, are orally administered either vehicle or formulated IRAK-4 compound 1 hour prior to the challenge. Vehicle or IRAK4 compound is administered by oral gavage at a volume of 10 mL/kg. One hour post oral delivery of vehicle or compound, the animals are challenged with an intraperitoneal injection (IP) of a solution containing 1 μg/mL LPS and 80 mg/mL D-gal. Each mouse is injected with […] of the solution, for a final challenge dose of 100 ng LPS and 8 mg D-gal. Ninety minutes post LPS/D-gal challenge, animals are euthanized and blood collected. Blood is allowed to clot at room temperature and serum is separated by centrifugation and stored at −80° C. for analysis. Serum TNF and IL-6 are measured by Meso Scale Discovery (MSD) multiplex platform.
The groups consisted of N=10 animals/group. Naïve animals and vehicle control groups were run with each study. Mean cytokine data was plotted and students T-test was performed to calculate significance (t-test, p<0.05 vs. vehicle) of IRAK4 treated group vs. vehicle treated group. Percent inhibition of cytokine induction was calculated for IRAK4 treated group vs. vehicle treated group.
Table 4 contains data from multiple studies with columns for Compound, Dose in mg/kg (mpk) and % inhibition of serum TNF. In cases where doses of certain compounds were repeated in multiple experiments, the average percent inhibition of TNF and standard deviation is shown in the table.

[2] = target: human IRAK4 FL (Full Length) (Homo sapiens (Human), UniProt Q9NWZ3); experiment: IRAK4 Enzymatic DELFIA Assay, Protocol A; assay type: biochemical; conditions: 0.6 mM ATP (KM)
human IRAK4 FL (Full Length), sequence (Q9NWZ3 whole entry): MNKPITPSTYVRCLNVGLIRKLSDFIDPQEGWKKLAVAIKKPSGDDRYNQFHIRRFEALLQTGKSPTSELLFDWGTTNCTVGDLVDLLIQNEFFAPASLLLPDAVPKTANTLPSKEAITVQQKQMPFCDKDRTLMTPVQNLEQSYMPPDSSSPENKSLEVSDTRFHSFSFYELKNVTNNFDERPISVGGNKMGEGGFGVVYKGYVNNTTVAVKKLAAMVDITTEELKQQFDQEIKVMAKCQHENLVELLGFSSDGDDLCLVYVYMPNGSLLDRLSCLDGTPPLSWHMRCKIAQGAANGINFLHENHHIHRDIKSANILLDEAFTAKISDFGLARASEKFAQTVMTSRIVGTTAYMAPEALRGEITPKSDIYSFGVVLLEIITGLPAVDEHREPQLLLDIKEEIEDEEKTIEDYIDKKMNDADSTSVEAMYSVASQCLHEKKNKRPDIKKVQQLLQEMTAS

## Cc1ccc(-n2nc(C(C)(C)C)cc2NC(=O)Nc2ccc(OCCN3CCOCC3)c3ccccc23)cc1 [BIRB796, reference compound]
[1]; 30 mg/kg PO, QD, positive control (p38 inhibitor)
  days on which hind paw swelling in CIA rats was significantly reduced (t-test, p<0.05 vs. vehicle): Day 1-Day 8

## CC(C)Oc1cc2c(OC[C@@H]3CCC(=O)N3)nccc2cc1C(N)=O [Example 26, 1-{[(2S)-5-oxopyrrolidin-2-yl]methoxy}-7-(propan-2-yloxy)isoquinoline-6-carboxamide]
[1]; 10 mg/kg PO, BID
  hind paw swelling (delta paw volume): transiently significant reduction in hind paw swelling only on Day 5 and Day 6
[1]; 30 mg/kg PO, BID, therapeutic treatment for 8 days
  days on which hind paw swelling in CIA rats was significantly reduced (t-test, p<0.05 vs. vehicle): Day 2-Day 8
[1]; 100 mg/kg PO, BID, therapeutic treatment for 8 days
  days on which hind paw swelling in CIA rats was significantly reduced (t-test, p<0.05 vs. vehicle): Day 1-Day 8 (end)
[1]; therapeutic treatment BID daily for 8 days, t-test p<0.05 vs. vehicle
  hind paw swelling (delta paw volume): reduced the hind paw swelling in CIA rats significantly

## COc1cc2c(OC[C@@H]3CCC(=O)N3)cccc2cc1C(N)=O [Example 173, 3-methoxy-5-{[(2S)-5-oxopyrrolidin-2-yl]methoxy}naphthalene-2-carboxamide]
Serum TNF; dose 30 mpk
  % inhib TNF: 55%
Serum TNF; dose 100 mpk
  % inhib TNF: 98%

## COc1cc2c(OC[C@H]3NC(=O)[C@@H](F)[C@H]3C)nccc2cc1C(N)=O [Example 189, 1-{[(2S,3S,4S)-4-fluoro-3-methyl-5-oxopyrrolidin-2-yl]methoxy}-7-methoxyisoquinoline-6-carboxamide]
Serum TNF; dose 30 mpk
  % inhib TNF: 40%

## CC(C)Oc1cc2c(OC[C@@H]3C[C@@H](C4(O)COC4)C(=O)N3)nccc2cc1C(N)=O [Example 193, 1-{[(2S,4S)-4-(3-hydroxyoxetan-3-yl)-5-oxopyrrolidin-2-yl]methoxy}-7-(propan-2-yloxy)isoquinoline-6-carboxamide]
[2]
  IC50: 238 nM

## COc1cc2c(OC[C@@H]3C[C@](C)(F)C(=O)N3)cccc2cc1C(N)=O [Example 194, 5-{[(2S,4S)-4-fluoro-4-methyl-5-oxopyrrolidin-2-yl]methoxy}-3-methoxynaphthalene-2-carboxamide]
Serum TNF; dose 30 mpk
  % inhib TNF: 76%
